Measurements from patent US5439922A, “Piperidyl-substituted indoles for treating anxiety” (H. Lundbeck A/S, priority 1990, dated 1995).
Entries after “also recorded” stand apart in the source; their conditions may differ. Like-named read-outs stand apart in the source and are kept apart here.

Experiments:
in vivo = conditions: sc
Description: Evaluation of catalepsy was made according to Arnt (Eur. J. Pharmacol. 90, 47-55 (1983)). Catalepsy is an indicator of dopamine receptor blockade in vivo which corrolates to the clinical potency of the classical neuroleptics. However, catalepsy is also considered to indicate extrapyramidal side effects (Arnt, J. et al.; Neuropharrnacology 1981, 20, 1331-1334.
In this test test compound is given s.c. in different doses. The rat (170-240 g )is placed on a vertical wire mesh (mesh diameter 12 mm ). The rat is considered cataleptogenic if it remains immobile for more than 15 sec. The maximum number of rats showing catalepsy within the first 6 hours is recorded for each dose group. The results are recorded in fractions and an ED50 value is calculated by means of log-probit analysis.
The following corresponding 1-aryl-3-(1,2,3,6-tetrahydropyridyl)- or 1-aryl-3-(piperazinyl)indole derivatives which are analogues of Lu 23-174 and Compound No 12, respectively, were included in the test as comparing compounds:
A) 1-(4-Fluorophenyl)-3-[1-[2-(2-imidazolidinon-1-yl)ethyl]-1,2,3,6-tetrahydropyridin-4-yl]-5-trifluoromethyl-1H-indole
B) 5-Chloro-1-(4-fluorophenyl)-3-[1-[2-(2-imidazolidinon-1-yl)ethyl]-1,2,3,6- tetrahydro-4-pyridyl]-1H-indole
C) 5-Chloro-1-(4-fluorophenyl)-3-[4-[2-(2-imidazolidinon-1-yl)ethyl]-1-piperazinyl]-1H-indole

[1] = Light/dark discrimination test in rats; type: in vivo, rat (Wistar WU); conditions: rat, s.c.; observation 2h
Protocol: The test was carried out similarly to the test in mice described above, however modified in accodance with F. C. Colpaert et al., Psychopharmacology (1985) 86: 45-54. The test used Wistar WU rats.

[2] = Inhibition of isolation induced aggression in mice; type: in vivo, mouse (male NMRI/BOM, SPF); conditions: for ED50: Mus musculus
Description: This test is used to evaluate the ability of a test substance to inhibit isolation induced aggressive behaviour in mice and is considered to be a test model for anxiolytic effect. The method is a modified version of the method described by McMillen et al. in Drug Develop. Research 12, 53-62, 1988.
Male mice (NMRI/BOM,SPF) weighing 16-18 g were used. The mice were housed individually in macrolon cages for 3 weeks before training to attack an intruder mouse. The mice were trained daily for a period of 1-2 weeks until a satisfactory respons was obtained. During the first days the mice were trained against each other. When a satisfactory respons was obtained group-housed mice were used as intruders. The time elapsed until attack was recorded. The intruder mouse was removed as soon as an attack had occured or after 180 sec. After the training period 60-70 percent of the mice had latencies of less than 10 sec.
The mice were pretested before drug treatment. Only mice attacking within 25 sec. were used. The animals were treated with test substance or saline. The mice were tested 30 or 120 minutes later, respectively. Nonspecific motoric effects were also recorded. 8 mice were used per group.
The results were stated as fractions of mice with attack latencies greater than or equal to a threshold value. As threshold values were used 180 and 90 sec. ED50 values were calculated by log-probit analysis.
The results are given in the following table as ED50 values in μmol/kg. The known compounds diazepam, buspirone and ritanserin were included in the test for the purpose of comparison.

[3] = Light/dark discrimination test in mice (two compartment activity box); type: in vivo, mouse (male albino BKW); conditions: mouse, i.p.
Protocol: This test was carried out in accordance with the method described in Costall et al. Br. J. Pharmacol. 90 275P (1987).
The test was conducted using a two compartment activity box in which the actions of anxiolytic compounds to reduce aversion against a brightly-lit environment may be readily detected. The box is designed as an open-top experimental box (45*27*27 cm) one third of which was partitioned from the rest, painted black and illuminated with red light. The remainder of the box was painted white and brightly illuminated (1000 W). The floor of each area was lined into squares. Behavioural changes were determined for each area from video recordings for periods of 40 min. Data obtained from dose groups of 5 animals (male albino BKW mice, 25-30 g ) were analysed using single factor analysis of variance, and Dunnett's t-test. Test compounds were given intrapentoneally 45 min before testing.
The results are given in the following Table 2 as minimum doses (mg/kg i.p.) tested showing effect (p<0.001). The behavioural change used were exploratory rearings and line crossings.
The known substances diazepam, and ondansetron were included in the test for comparison purposes.

[4] = 0.5 h, attack latency threshold 90 sec., 30 min pretreatment, read-out: ED50, threshold 90 sec., 30 min pretreatment
[5] = 0.5 h, attack latency threshold 180 sec., 30 min pretreatment, read-out: ED50, threshold 180 sec., 30 min pretreatment
[6] = 2 h, attack latency threshold 90 sec., 120 min pretreatment, read-out: ED50, threshold 90 sec., 120 min pretreatment
[7] = 2 h, attack latency threshold 180 sec., 120 min pretreatment, read-out: ED50, threshold 180 sec., 120 min pretreatment

With O=C1NCCN1CCN1CCC(c2cn(-c3ccc(F)cc3)c3ccc(Cl)cc23)CC1 [Lu 23-174, 5-chloro-1-(4-fluorophenyl)-3-[1-[2-(2-imidazolidinon-1-yl)ethyl]-4-piperidyl]-1H-indole] as the compound, how does the ED50 at 6 h (in vivo; rat) read?
Its ED50 at 6 h is > 98 µmol/kg.

What about the “Effect in light/dark discrimination test in rats (active dose in words)” value [1] of the same compound?
The value was “showed effect in nano molar doses/kg”.

And the ED50 [2, 4]?
Its ED50 is 4.4 µmol/kg.

And the ED50 [2, 5]?
Its ED50 is 3.2 µmol/kg.

With O=C1NCCN1CCN1CC=C(c2cn(-c3ccc(F)cc3)c3ccc(Cl)cc23)CC1 [B, 5-Chloro-1-(4-fluorophenyl)-3-[1-[2-(2-imidazolidinon-1-yl)ethyl]-1,2,3,6-tetrahydro-4-pyridyl]-1H-indole, reference compound] as the compound, how does the ED50 at 6 h (in vivo; in vivo) read?
Its ED50 at 6 h is 2.2 µmol/kg.

Which ED50 at 6 h (in vivo; in vivo) does the source give for CN1CCN(CCN2CCC(c3cn(-c4ccc(F)cc4)c4ccc(Cl)cc34)CC2)C1=O [Compound 3, 5-chloro-1-(4-fluorophenyl)-3-[1-[2-(3-methyl-2-imidazolidinon-1-yl)ethyl]-4-piperidyl]1H-indole] here?
Its ED50 at 6 h is 31 µmol/kg.

For Cc1ccc2c(c1)c(C1CCN(CCN3CCNC3=O)CC1)cn2-c1ccc(F)cc1 [Compound 24, 1-(4-fluorophenyl)-3-[1-[2-(2-imidazolidinon-1-yl)ethyl]-4-piperidyl]-5-methyl-1H-indole], which ED50 at 6 h (in vivo; rat) is on record?
Its ED50 at 6 h is > 95 µmol/kg.

And the ED50 [2, 6]?
Its ED50 is 3.2 µmol/kg.

What about the ED50 [2, 7] of the same compound?
Its ED50 is 2.5 µmol/kg.

With O=C1CCCN1CCN1CCC(c2cn(-c3ccc(F)cc3)c3ccc(Cl)cc23)CC1 [Compound 4, 5-chloro-1-(4-fluorophenyl)-3-[1-[2-(2-pyrrolidinon-1-yl)ethyl]-4-piperidyl]-1H-indole] as the compound, how does the ED50 at 6 h (in vivo; in vivo) read?
The ED50 at 6 h was 23 µmol/kg.

For CC(C)N1CCN(CCN2CCC(c3cn(-c4ccc(F)cc4)c4ccc(Cl)cc34)CC2)C1=O [Compound 14, 5-chloro-1-(4-fluorophenyl)-3-[1-[2-[3-(2-propyl)-2-imidazolidinon-1-yl]ethyl]-4-piperidyl]-1H-indole], which ED50 at 6 h (in vivo; rat) is on record?
The ED50 at 6 h was > 69 µmol/kg.

Which ED50 [2, 4] does the source give for O=C1CC2(CCCC2)CC(=O)N1CCCCN1CCN(c2ncccn2)CC1 [Buspirone] here?
The ED50 was 9.6 µmol/kg.

And the ED50 [2, 5]?
Its ED50 is 5.4 µmol/kg.

For O=C1NCCN1CCN1CC=C(c2cn(-c3ccc(F)cc3)c3ccc(C(F)(F)F)cc23)CC1 [A, 1-(4-Fluorophenyl)-3-[1-[2-(2-imidazolidinon-1-yl)ethyl]-1,2,3,6-tetrahydropyridin-4-yl]-5-trifluoromethyl-1H-indole, reference compound], which ED50 at 6 h (in vivo; in vivo) is on record?
Its ED50 at 6 h is 0.49 µmol/kg.

Which ED50 [2, 6] does the source give for O=C1NCCN1CCN1CCC(c2cn(-c3ccc(F)cc3)c3ccccc23)CC1 [Lu 23-086, 1-(4-fluorophenyl)-3-[1-[2-(2-imidazolidinon-1-yl)ethyl]-4-piperidyl]-1H-indole] here?
The ED50 was 1.9 µmol/kg.

And the ED50 [2, 7]?
Its ED50 is 1.7 µmol/kg.

With O=C1OCCN1CCN1CCC(c2cn(-c3ccc(F)cc3)c3ccc(Cl)cc23)CC1 [Compound 2, 5-chloro-1-(4-fluorophenyl)-3-[1-[2-(2-oxazolidinon-1-yl)ethyl]-4-piperidyl]-1H-indole] as the compound, how does the ED50 at 6 h (in vivo; rat) read?
The ED50 at 6 h was > 18 µmol/kg.

With O=C1NCCN1CCN1CCN(c2cn(-c3ccc(F)cc3)c3ccc(Cl)cc23)CC1 [C, 5-Chloro-1-(4-fluorophenyl)-3-[4-[2-(2-imidazolidinon-1-yl)ethyl]-1-piperazinyl]-1H-indole, reference compound] as the compound, how does the ED50 at 6 h (in vivo; rat) read?
The ED50 at 6 h was 4.5 µmol/kg.

With O=C1NCCN1CCN1CCC(c2cn(-c3ccc(F)cc3)c3ccc(F)cc23)CC1 [Compound 16, 5-fluoro-1-(4-fluorophenyl)-3-[1-[2-(2-imidazolidinon-1-yl)ethyl]-4-piperidyl]-1H-indole] as the compound, how does the ED50 at 6 h (in vivo; rat) read?
Its ED50 at 6 h is > 78 µmol/kg.

What about the ED50 [2, 6] of the same compound?
Its ED50 is 2.1 µmol/kg.

What about the ED50 [2, 7] of the same compound?
The ED50 was 1.6 µmol/kg.

With CN1C(=O)CN=C(c2ccccc2)c2cc(Cl)ccc21 [Diazepam] as the compound, how does the ED50 ([2]; 0.5 h, read-out: ED50, threshold 90 sec., 30 min pretreatment) read?
Its ED50 is 26 µmol/kg.

What about the ED50 ([2]; 0.5 h, read-out: ED50, threshold 180 sec., 30 min pretreatment) of the same compound?
The ED50 was 15 µmol/kg.

With O=C1NCCN1CCN1CCC(c2cn(-c3ccc(F)cc3)c3ccc(C(F)(F)F)cc23)CC1 [Compound 12, 1-(4-fluorophenyl)-3-[1-[2-(2-imidazolidinon-1-yl)ethyl]-4-piperidyl]-5-trifluomethyl-1H-indole] as the compound, how does the ED50 at 6 h (in vivo; rat) read?
The ED50 at 6 h was 38 µmol/kg.

Which results are given for Cc1nc2sccn2c(=O)c1CCN1CCC(=C(c2ccc(F)cc2)c2ccc(F)cc2)CC1 [Ritanserin]?
Effect in light/dark discrimination test in mice [3]: did not show effect; also recorded: inactive; Effect in light/dark discrimination test in rats (active dose in words) [1]: only active in μmolar doses/kg; ED50 [2, 4]: > 21 µmol/kg; ED50 [2, 5]: > 21 µmol/kg; ED50 [2, 6]: > 10 µmol/kg; ED50 [2, 7]: > 10 µmol/kg; Effect in the aggression test ([2]; mouse, in vivo): showed no effect
